From article PMC9659204, “Biochemical Characterization of Pyranose Oxidase from Streptomyces canus—Towards a Better Understanding of Pyranose Oxidase Homologues in Bacteria” (International Journal of Molecular Sciences, 2022) come the findings set out here.

For orientation: Km means the substrate concentration at which the rate is half of its maximum.

Structures are written as SMILES.

This test has as its system T1, ScPOx (pyranose oxidase from Streptomyces canus).
T1 construct: synthetic codon-optimised gene in pET-21d+ (NcoI/HindIII), C-terminal His6 tag, E. coli BL21(DE3); 52 kDa monomer, noncovalent FAD
Nature of the test: steady-state kinetics, spectrophotometric. The format is biochemical. The note with it: apparent; electron acceptor; 4 M D-xylose as electron donor; 50 mM potassium phosphate pH 6.5; 30 °C. The source says: steady-state kinetics, spectrophotometric on ScPOx (pyranose oxidase from Streptomyces canus)

Regarding `O=C1C(Cl)=CC(=Nc2ccc(O)cc2)C=C1Cl` [DCIP], the Km worked out at 50 ± 10 µM. The result for `O=C1C=CC(=O)C=C1` [p-BQ] reads 130 ± 20 µM.
